From paper PMC4620497 (Scientific Reports, 2015)

How the values were obtained:
[1] = target: T1, ABL1(F317I)-nonphosphorylated (Homo sapiens, UniProt P00519, F317I); assay: KINOMEscan panel screen; format: binding; settings: read-out: Percent Control(%)
T1 construct: purchased DiscoveRx KINOMEscan (Ambit Biosciences)

EGFR(L861Q) = target: T2, EGFR(L861Q) (Homo sapiens, UniProt P00533, L861Q); assay: KINOMEscan panel screen; format: binding; settings: read-out: Percent Control(%)
T2 construct: purchased DiscoveRx KINOMEscan (Ambit Biosciences)
T2 sequence (P00533 25-1210 L861Q): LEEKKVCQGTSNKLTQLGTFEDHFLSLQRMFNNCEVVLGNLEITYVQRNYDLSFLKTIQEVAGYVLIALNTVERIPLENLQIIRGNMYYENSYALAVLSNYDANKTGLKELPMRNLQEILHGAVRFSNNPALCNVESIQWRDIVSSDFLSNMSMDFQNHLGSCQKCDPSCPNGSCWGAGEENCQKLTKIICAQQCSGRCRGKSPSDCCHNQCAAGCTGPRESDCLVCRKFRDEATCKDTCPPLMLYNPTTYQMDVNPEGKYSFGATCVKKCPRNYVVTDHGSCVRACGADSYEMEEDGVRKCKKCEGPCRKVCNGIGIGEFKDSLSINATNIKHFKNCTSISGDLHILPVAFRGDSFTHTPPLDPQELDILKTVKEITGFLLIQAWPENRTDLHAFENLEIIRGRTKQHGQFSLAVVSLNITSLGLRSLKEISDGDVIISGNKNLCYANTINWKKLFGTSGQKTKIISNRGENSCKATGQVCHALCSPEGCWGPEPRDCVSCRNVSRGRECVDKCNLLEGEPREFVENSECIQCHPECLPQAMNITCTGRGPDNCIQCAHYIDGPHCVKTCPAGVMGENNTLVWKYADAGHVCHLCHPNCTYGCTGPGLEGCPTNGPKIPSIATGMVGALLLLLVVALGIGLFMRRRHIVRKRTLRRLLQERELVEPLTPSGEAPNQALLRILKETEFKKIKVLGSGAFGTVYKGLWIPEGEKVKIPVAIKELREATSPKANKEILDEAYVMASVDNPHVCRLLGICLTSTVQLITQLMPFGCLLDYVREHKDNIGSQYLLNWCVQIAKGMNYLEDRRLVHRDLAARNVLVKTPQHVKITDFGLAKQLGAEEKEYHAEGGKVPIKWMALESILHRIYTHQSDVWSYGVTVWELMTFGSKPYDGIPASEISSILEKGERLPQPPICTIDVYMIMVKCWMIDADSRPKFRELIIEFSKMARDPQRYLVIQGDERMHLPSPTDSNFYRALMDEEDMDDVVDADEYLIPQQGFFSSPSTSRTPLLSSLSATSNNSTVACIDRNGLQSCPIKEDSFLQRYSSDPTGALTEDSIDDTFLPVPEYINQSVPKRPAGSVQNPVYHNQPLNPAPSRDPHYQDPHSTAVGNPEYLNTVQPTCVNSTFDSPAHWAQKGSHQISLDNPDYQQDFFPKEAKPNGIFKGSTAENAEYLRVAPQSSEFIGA

IKK-epsilon = target: T3, IKK-epsilon (Homo sapiens, UniProt Q14164); assay: KINOMEscan panel screen; format: binding; settings: read-out: Percent Control(%)
T3 construct: purchased DiscoveRx KINOMEscan (Ambit Biosciences)
T3 sequence (Q14164 whole entry): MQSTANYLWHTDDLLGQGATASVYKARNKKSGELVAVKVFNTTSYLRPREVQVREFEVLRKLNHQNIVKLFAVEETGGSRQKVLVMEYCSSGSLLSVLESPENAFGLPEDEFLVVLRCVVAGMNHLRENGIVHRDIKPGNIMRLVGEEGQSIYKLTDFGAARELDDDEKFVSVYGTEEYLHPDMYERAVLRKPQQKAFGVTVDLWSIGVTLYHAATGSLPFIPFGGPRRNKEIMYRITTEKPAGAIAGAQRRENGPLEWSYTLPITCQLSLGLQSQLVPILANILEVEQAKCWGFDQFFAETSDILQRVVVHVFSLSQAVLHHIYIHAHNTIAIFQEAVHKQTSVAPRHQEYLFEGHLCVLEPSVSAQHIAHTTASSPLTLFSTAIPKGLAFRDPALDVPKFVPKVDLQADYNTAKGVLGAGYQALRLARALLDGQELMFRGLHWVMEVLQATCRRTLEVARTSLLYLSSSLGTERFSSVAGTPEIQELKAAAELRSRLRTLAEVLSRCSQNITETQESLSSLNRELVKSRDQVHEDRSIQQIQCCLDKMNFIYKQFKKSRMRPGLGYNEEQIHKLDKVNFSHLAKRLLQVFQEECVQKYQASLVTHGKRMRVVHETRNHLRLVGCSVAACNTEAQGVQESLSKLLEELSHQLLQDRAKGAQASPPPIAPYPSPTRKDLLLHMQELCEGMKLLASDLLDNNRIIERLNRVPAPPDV

LCK = LCK (Homo sapiens, UniProt P06239); assay: KINOMEscan panel screen; format: binding; settings: read-out: Percent Control(%)
LCK, sequence (P06239 whole entry): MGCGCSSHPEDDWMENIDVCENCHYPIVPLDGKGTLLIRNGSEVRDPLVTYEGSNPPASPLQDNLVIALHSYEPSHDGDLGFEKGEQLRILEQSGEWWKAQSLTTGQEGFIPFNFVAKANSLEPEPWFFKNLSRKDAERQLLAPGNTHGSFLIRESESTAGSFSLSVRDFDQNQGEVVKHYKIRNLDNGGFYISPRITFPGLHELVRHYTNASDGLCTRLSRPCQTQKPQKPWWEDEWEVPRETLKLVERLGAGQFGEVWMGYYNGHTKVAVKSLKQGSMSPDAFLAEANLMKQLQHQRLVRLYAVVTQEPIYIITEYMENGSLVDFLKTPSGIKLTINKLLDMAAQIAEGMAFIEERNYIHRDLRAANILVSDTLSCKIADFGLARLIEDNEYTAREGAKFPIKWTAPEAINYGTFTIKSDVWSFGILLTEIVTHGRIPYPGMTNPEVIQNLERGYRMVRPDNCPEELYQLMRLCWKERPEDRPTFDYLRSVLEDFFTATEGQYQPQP

MARK4 = target: T4, MARK4 (Homo sapiens, UniProt Q96L34); assay: KINOMEscan panel screen; format: binding; settings: read-out: Percent Control(%)
T4 construct: purchased DiscoveRx KINOMEscan (Ambit Biosciences)

MAST1 = target: T5, MAST1 (Homo sapiens, UniProt Q9Y2H9); assay: KINOMEscan panel screen; format: binding; settings: read-out: Percent Control(%)
T5 construct: purchased DiscoveRx KINOMEscan (Ambit Biosciences)

p38-delta = target: T6, p38-delta (Homo sapiens, UniProt O15264); assay: KINOMEscan panel screen; format: binding; settings: read-out: Percent Control(%)
T6 construct: purchased DiscoveRx KINOMEscan (Ambit Biosciences)
T6 sequence (O15264 whole entry): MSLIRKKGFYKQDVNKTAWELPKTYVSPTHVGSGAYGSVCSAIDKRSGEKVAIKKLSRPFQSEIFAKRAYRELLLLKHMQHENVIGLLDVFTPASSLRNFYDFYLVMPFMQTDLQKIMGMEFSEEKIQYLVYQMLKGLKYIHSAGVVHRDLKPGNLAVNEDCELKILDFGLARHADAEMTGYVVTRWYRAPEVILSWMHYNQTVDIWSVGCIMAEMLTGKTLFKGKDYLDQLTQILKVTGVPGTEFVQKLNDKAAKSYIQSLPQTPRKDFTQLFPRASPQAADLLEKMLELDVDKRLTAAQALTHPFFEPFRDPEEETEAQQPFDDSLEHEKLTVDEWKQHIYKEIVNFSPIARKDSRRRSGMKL

PDGFRB = target: T7, PDGFRB (Homo sapiens, UniProt P09619); assay: KINOMEscan panel screen; format: binding; settings: read-out: Percent Control(%)
T7 construct: purchased DiscoveRx KINOMEscan (Ambit Biosciences)

TGFBR1 = target: T8, TGFBR1 (Homo sapiens, UniProt P36897); assay: KINOMEscan panel screen; format: binding; settings: read-out: Percent Control(%)
T8 construct: DNA tag (qPCR read-out); purchased Ambit Biosciences (KINOMEscan service)
T8 sequence (P36897 34-503): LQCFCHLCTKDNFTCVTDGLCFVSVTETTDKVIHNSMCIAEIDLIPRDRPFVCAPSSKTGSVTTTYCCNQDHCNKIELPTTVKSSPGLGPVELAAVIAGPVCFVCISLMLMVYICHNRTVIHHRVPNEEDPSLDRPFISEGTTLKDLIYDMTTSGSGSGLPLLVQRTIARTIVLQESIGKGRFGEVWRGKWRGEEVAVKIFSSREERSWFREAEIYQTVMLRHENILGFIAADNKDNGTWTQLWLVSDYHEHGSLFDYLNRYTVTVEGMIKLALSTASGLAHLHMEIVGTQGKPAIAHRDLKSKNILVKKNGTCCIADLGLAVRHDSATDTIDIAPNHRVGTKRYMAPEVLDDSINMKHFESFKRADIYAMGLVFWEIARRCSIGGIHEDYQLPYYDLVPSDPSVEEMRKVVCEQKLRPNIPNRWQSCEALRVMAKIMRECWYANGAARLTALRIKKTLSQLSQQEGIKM

[2] = test system: phosphorylation of FLT3 and STAT5 in MV4-11 tumors; assay: FLT3 signaling in MV4-11 xenograft tumors (western blot); format: in vivo, NOD-SCID mice; settings: single oral dose 10 mg/kg
Experimental: To examine the effects of SKLB-677 on FLT3 and Wnt/β-catenin signaling in vivo, the same MV4-11 xenograft model was used and MV4-11 tumors were harvested at specific time points (0 h, 4 h, 6 h, 8 h, 12 h, and 24 h) after the treatment of 10 mg/kg SKLB-677 (3 mice for each time point). Western blot assays and real-time qPCR assays were conducted on the harvested tumors.
Western blot analysis was performed as previously described. Whole protein lysates of tumor samples were collected by the abrading of tumors in liquid nitrogen. […] Quantitative analysis of the protein level was performed with NIH image analysis software, ImageJ (normalized relative to the vehicle control).
Figure 5 In vivo effects of SKLB-677. […] The tumor volume and body weight were measured every 3 days during the treatment. […] Ki67 and TUNEL were detected with immunohistochemical. […] Tumors were harvested at the indicated time points, and the FLT3 signaling pathway was detected using western blot assays. […] (e) The same harvested tumors were detected using real-time qPCR assays to test the expression of AXIN2 and NKD1 (the target genes of Wnt/β-catenin pathway). […] The plasma concentrations were determined using liquid–liquid extraction followed by high-performance liquid chromatography (HPLC) with tandem mass spectrometric detection.

T1 sequence (P00519 whole entry F317I): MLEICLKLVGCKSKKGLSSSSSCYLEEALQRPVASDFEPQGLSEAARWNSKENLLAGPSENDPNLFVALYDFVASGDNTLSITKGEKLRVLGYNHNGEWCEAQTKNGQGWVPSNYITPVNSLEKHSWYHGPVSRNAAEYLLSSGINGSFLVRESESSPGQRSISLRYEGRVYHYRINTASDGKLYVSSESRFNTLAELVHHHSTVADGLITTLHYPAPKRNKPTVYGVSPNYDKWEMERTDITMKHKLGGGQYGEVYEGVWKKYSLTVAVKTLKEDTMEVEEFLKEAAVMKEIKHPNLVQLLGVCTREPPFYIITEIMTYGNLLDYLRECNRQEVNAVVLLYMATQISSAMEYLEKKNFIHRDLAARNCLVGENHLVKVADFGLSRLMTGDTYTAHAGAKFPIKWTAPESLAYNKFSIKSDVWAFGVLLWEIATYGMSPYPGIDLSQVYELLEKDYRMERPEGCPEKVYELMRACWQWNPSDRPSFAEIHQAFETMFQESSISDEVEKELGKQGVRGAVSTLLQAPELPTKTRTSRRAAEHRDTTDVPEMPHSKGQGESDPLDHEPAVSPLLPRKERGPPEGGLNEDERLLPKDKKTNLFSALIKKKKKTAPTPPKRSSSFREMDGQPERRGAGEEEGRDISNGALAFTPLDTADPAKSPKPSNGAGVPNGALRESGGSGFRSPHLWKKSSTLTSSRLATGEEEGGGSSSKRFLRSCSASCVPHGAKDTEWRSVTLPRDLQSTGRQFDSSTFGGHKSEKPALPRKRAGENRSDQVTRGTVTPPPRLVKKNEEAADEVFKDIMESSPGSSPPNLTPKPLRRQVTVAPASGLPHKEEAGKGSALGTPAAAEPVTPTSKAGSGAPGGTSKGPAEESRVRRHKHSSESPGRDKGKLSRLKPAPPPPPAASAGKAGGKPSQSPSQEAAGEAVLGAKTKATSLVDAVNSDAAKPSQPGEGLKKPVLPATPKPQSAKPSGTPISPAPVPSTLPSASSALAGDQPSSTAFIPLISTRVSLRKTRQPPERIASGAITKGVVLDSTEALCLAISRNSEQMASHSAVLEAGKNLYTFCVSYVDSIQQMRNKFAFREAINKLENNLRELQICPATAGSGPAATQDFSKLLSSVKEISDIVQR

## CC(C)(C)c1cc(NC(=O)Nc2ccc(Oc3ncnc4[nH]ncc34)c(F)c2)no1 [SKLB-677, 1-(4-(1H-pyrazolo[3,4-d]pyrimidin-4-yloxy)-3-fluorophenyl)-3-(5-tert-butylisoxazol-3-yl)urea]
[1]
  remaining binding at 10 µM: 2.2%
EGFR(L861Q)
  remaining binding at 10 µM: 46%
IKK-epsilon
  remaining binding at 10 µM: 55%
LCK
  remaining binding at 10 µM: 0.3%
MARK4
  remaining binding at 10 µM: 70%
MAST1
  remaining binding at 10 µM: 100%
p38-delta
  remaining binding at 10 µM: 10%
PDGFRB
  remaining binding at 10 µM: 0%
TGFBR1
  remaining binding at 10 µM: 100%
[2]
  time for which the effects on p-FLT3 and p-STAT5 were maintained: up to 24 h
[2]; 4 h posttreatment
  phosphorylation of FLT3 and STAT5 in tumors: nearly abolished
